According to patent US20240383913A1, “THIOPHENE RING COMPOUND, PREPARATION METHOD THEREFOR AND APPLICATION THEREOF” (CENTER FOR EXCELLENCE IN MOLECULAR CELL SCIENCE, CHINESE …, priority 2021, published 2024):

How the values were obtained:
[1] = biological target: T1, dopamine D2 receptors (Homo sapiens (Human), UniProt P14416); assay: Affinity for dopamine D2 receptors, radioligand competition with [3H]-Methylspiperone; format: binding; details: 293T membrane transiently expressing D2
[2] = biological target: T1, dopamine D2 receptors; assay: Dopamine D2 receptor β-arrestin2 BRET (recruitment); format: cell-based; details: D2 receptor, β-arrestin2 pathway;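 further: cells co-expressing Rluc-fused D2 receptor, GRK2 and GFP2-fused β-arrestin2, BRET read with coelenterazine 400a after adding drug over a concentration series, in duplicate wells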
[3] = biological target: 5-HT2A receptor (Homo sapiens (Human), UniProt P28223); assay: Affinity for 5-HT2A receptors, radioligand competition with [3H]-ketanserin; format: binding; details: 293T membrane transiently expressing 5-HT2A
Sequence of 5-HT2A receptor (P28223 whole entry): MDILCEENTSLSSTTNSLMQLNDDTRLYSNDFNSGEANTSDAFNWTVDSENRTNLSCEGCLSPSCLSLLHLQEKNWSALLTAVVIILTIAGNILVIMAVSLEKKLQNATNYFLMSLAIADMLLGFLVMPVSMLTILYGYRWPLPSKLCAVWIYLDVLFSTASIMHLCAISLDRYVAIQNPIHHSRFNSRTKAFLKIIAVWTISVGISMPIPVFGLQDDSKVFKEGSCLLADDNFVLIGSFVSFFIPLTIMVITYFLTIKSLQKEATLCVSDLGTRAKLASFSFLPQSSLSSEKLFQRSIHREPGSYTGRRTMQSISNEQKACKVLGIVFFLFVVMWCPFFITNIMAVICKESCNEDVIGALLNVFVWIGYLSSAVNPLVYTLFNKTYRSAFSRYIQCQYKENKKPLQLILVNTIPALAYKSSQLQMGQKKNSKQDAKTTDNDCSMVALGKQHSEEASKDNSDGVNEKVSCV
Procedure: The affinity of the compounds of the present disclosure for the 5-HT2A receptors was determined by the method of radioligand competition experiment. In the first step, a cell membrane component containing specific 5-HT2A receptor was prepared. A 10 cm dish was used for transfection with 10 ng of the 5-HT2A receptor and 40 μL of PEI. After 48 hours, the 10 cm dish was taken out from the cell incubator and the cultured cells had expressed the 5-HT2A receptor. A vacuum pump was used to suck off the culture medium, 3 mL of lysis buffer was added to each culture dish, and the cells were placed in a 4° C. cold room for 10 minutes. After the cells were detached, the cells were transferred to a 15 mL centrifuge tube and centrifuged at 1500 rpm for 5 minutes at 4° C., and the supernatant was discarded. The cell pellet was transferred to a tissue homogenizer, and 3 mL of lysis buffer was added and fully ground until the cells were broken. Then, cell suspension was equally aliquoted into several EP tubes, centrifuged at 12000 rpm for 5 minutes at 4° C., and the supernatant was discarded. The precipitate was the cell membrane component containing the 5-HT2A receptor. […] First, a standard binding buffer was added to the cell membrane component containing the 5-HT2A receptor, and the cell membrane was disrupted and resuspended with an electric tissue homogenizer. 30 μL of membrane protein suspension was added to each well of a 96-well plate. Then, 30 μL of different drugs were added to the 96-well plate sequentially from bottom to top to ensure that the final drug concentrations were 10^−5 M, 10^−6 M, 10^−7 M, 10^−8 M, 10^−9 M, and 0 M, with two replicates per treatment. Next, 30 μL of [3H]-ketanserin was added to each well of the 96-well plate. The plate was incubated for 2 hours at room temperature in the dark. Detection was conducted. The machine readout value reflected the amount of [3H]-ketanserin bound on the membrane, and after further data processing, the affinity Ki values of different compounds for the 5-HT2A receptor were obtained.

[4] = biological target: 5-HT1A receptor (Homo sapiens (Human), UniProt P08908); assay: Affinity for 5-HT1A receptors, radioligand competition with [3H]-LSD; format: binding; details: 293T membrane transiently expressing 5-HT1A; [3H]-LSD; read-out: 5-HT1A affinity Ki;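 further: membranes from cells transiently transfected with 5-HT1A receptor, bound [3H]-LSD displaced by compound at 10^-9 to 10^-5 M, 2 h incubation at room temperature in the dark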
Sequence of 5-HT1A receptor (P08908 whole entry): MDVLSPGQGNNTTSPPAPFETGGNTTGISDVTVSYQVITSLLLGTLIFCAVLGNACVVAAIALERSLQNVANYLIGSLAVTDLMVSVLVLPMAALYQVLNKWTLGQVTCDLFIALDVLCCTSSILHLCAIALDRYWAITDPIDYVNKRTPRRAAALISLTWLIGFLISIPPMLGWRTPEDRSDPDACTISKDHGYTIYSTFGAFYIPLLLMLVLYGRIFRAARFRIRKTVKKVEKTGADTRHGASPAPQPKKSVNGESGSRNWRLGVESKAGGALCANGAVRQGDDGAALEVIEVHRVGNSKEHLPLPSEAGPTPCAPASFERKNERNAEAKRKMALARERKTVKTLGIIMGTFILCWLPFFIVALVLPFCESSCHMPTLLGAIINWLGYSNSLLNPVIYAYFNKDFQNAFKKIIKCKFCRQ

[5] = test system: hyperlocomotion of the mice induced by MK801; assay: Open field test, hyperlocomotion induced by MK801; format: in vivo, C57B6 male mice; details: for Distance (cm) travelled in 45 minutes: 0-45 minute interval after MK-801; for Distance travelled (cm): 5-minute bin
Procedure: Experimental method: The experimental animals were C57B6 male mice, n=8 in each group. This model used C57B6 mice as experimental animals. Hyperlocomotion of the mice in open field was induced by acute injection of a NMDA antagonist MK801. and modeled to test the inhibitory effect of different compounds on hyperkinesia phenotype induced by MK801. All mouse behavior experiments were carried out during the light period, and the whole process was recorded by the camera and locomotive data were tracked and analyzed by behavioral tracking software. The compounds were administered intraperitoneally. Immediately after the injection, the mice entered the open field and their movement trajectories were recorded by the camera. After 30 minutes, the mice received 0.2 mg/kg of MK801 by intraperitoneal injection and returned to the open field immediately after administration and the movement trajectories were further recorded for 120 minutes. The accumulative travelled distance of the mice was counted in a 5-minute bin. Data statistics were performed using Student-t-test analysis, *p<0.05, ** p<0.01, *** p<0.001, **** p<0.0001.

T1 sequence (P14416 whole entry, the tested form may be a part): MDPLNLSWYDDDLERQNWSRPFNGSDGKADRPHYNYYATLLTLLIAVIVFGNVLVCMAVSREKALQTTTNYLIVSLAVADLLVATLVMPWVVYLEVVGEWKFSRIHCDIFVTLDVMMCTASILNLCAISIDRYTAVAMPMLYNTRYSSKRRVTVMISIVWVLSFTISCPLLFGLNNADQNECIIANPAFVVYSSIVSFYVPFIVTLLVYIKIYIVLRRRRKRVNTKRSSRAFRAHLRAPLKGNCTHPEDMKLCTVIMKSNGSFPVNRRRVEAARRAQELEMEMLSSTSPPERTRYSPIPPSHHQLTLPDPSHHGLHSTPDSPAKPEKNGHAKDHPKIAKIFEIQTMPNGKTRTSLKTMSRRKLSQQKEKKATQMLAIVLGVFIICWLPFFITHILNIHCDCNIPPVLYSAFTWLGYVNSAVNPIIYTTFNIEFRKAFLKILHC

With `CN(C)C(=O)N[C@H]1CC[C@H](CCN2CCN3c4cccc5scc(c45)CC3C2)CC1` (single isomer, unassigned; (-)) [(−)-I-27] the Ki [1] was 120 nM, the “β-arrestin2 BRET (Emax %)” value [2] was “(54.79%)” and the EC50 ([2]; read-out: β-arrestin2 BRET EC50) was 10.6 nM. The Ki [3] was 2290 nM, the Ki [4] was 80 nM and the “Inhibition of MK801-induced hyperlocomotion” value ([5]; 0.4/0.2/0.1 mg/kg intraperitoneally, MK801 0.2 mg/kg) was “significantly inhibit hyperlocomotion”. The “Distance (cm) travelled in 45 minutes” value ([5]; (−)-I-27 0.1 mg/kg i.p. + MK801 0.2 mg/kg) was 6882.3 cm, the “Distance travelled (cm)” value ([5]; (−)-I-27 0.1 mg/kg i.p. + MK801 0.2 mg/kg, 5 minutes after MK801) was 420.96 ± 66.32 cm and the “Distance travelled (cm)” value ([5]; (−)-I-27 0.1 mg/kg i.p. + MK801 0.2 mg/kg, 10 minutes after MK801) was 405.21 ± 55.18 cm. The “Distance travelled (cm)” value ([5]; (−)-I-27 0.1 mg/kg i.p. + MK801 0.2 mg/kg, 15 minutes after MK801) was 482.21 ± 74.21 cm, the “Distance travelled (cm)” value ([5]; (−)-I-27 0.1 mg/kg i.p. + MK801 0.2 mg/kg, 20 minutes after MK801) was 708.05 ± 61.74 cm and the “Distance travelled (cm)” value ([5]; (−)-I-27 0.1 mg/kg i.p. + MK801 0.2 mg/kg, 25 minutes after MK801) was 895.54 ± 92.18 cm. For the same compound, the “Distance travelled (cm)” value ([5]; (−)-I-27 0.1 mg/kg i.p. + MK801 0.2 mg/kg, 30 minutes after MK801) was 1035.67 ± 122.77 cm, the “Distance travelled (cm)” value ([5]; (−)-I-27 0.1 mg/kg i.p. + MK801 0.2 mg/kg, 35 minutes after MK801) was 1075.2 ± 123.55 cm and the “Distance travelled (cm)” value ([5]; (−)-I-27 0.1 mg/kg i.p. + MK801 0.2 mg/kg, 45 minutes after MK801) was 942.97 ± 82.87 cm. For the same compound, the “Distance travelled (cm)” value ([5]; (−)-I-27 0.1 mg/kg i.p. + MK801 0.2 mg/kg, 50 minutes after MK801) was 985.86 ± 96.6 cm, the “Distance travelled (cm)” value ([5]; (−)-I-27 0.1 mg/kg i.p. + MK801 0.2 mg/kg, 55 minutes after MK801) was 925.44 ± 118.24 cm and the “Distance travelled (cm)” value ([5]; (−)-I-27 0.1 mg/kg i.p. + MK801 0.2 mg/kg, 60 minutes after MK801) was 937.96 ± 121.52 cm. The “Distance travelled (cm)” value ([5]; (−)-I-27 0.1 mg/kg i.p. + MK801 0.2 mg/kg, 65 minutes after MK801) was 931.08 ± 108.91 cm, the “Distance travelled (cm)” value ([5]; (−)-I-27 0.1 mg/kg i.p. + MK801 0.2 mg/kg, 70 minutes after MK801) was 839.2 ± 104.29 cm and the “Distance travelled (cm)” value ([5]; (−)-I-27 0.1 mg/kg i.p. + MK801 0.2 mg/kg, 75 minutes after MK801) was 773.65 ± 117.99 cm. The “Distance travelled (cm)” value ([5]; (−)-I-27 0.1 mg/kg i.p. + MK801 0.2 mg/kg, 80 minutes after MK801) was 691.57 ± 121.79 cm, the “Distance travelled (cm)” value ([5]; (−)-I-27 0.1 mg/kg i.p. + MK801 0.2 mg/kg, 85 minutes after MK801) was 682.97 ± 115.06 cm and the “Distance travelled (cm)” value ([5]; (−)-I-27 0.1 mg/kg i.p. + MK801 0.2 mg/kg, 90 minutes after MK801) was 611.63 ± 112.71 cm. The “Distance travelled (cm)” value ([5]; (−)-I-27 0.1 mg/kg i.p. + MK801 0.2 mg/kg, 95 minutes after MK801) was 432.95 ± 85.66 cm, the “Distance travelled (cm)” value ([5]; (−)-I-27 0.1 mg/kg i.p. + MK801 0.2 mg/kg, 100 minutes after MK801) was 405.27 ± 69.97 cm and the “Distance travelled (cm)” value ([5]; (−)-I-27 0.1 mg/kg i.p. + MK801 0.2 mg/kg, 105 minutes after MK801) was 391.87 ± 78.94 cm. The “Distance travelled (cm)” value ([5]; (−)-I-27 0.1 mg/kg i.p. + MK801 0.2 mg/kg, 110 minutes after MK801) was 351.08 ± 112.22 cm, the “Distance travelled (cm)” value ([5]; (−)-I-27 0.1 mg/kg i.p. + MK801 0.2 mg/kg, 115 minutes after MK801) was 310.3 ± 83.61 cm and the “Distance travelled (cm)” value ([5]; (−)-I-27 0.1 mg/kg i.p. + MK801 0.2 mg/kg, 120 minutes after MK801) was 339.28 ± 95.35 cm. The “Distance travelled (cm)” value ([5]; (−)-I-27 0.1 mg/kg i.p., 0 minutes, before MK801) was 446.62 ± 49.69 cm, the “Distance travelled (cm)” value ([5]; (−)-I-27 0.1 mg/kg i.p., −5 minutes, before MK801) was 473.13 ± 38.54 cm and the “Distance travelled (cm)” value ([5]; (−)-I-27 0.1 mg/kg i.p., −10 minutes, before MK801) was 479.62 ± 34 cm. The “Distance travelled (cm)” value ([5]; (−)-I-27 0.1 mg/kg i.p., −15 minutes, before MK801) was 522.39 ± 41.17 cm, the “Distance travelled (cm)” value ([5]; (−)-I-27 0.1 mg/kg i.p., −20 minutes, before MK801) was 606.78 ± 43.01 cm and the “Distance travelled (cm)” value ([5]; (−)-I-27 0.1 mg/kg i.p., −25 minutes, before MK801) was 827.15 ± 76.34 cm. The “Distance (cm) travelled in 45 minutes” value ([5]; (−)-I-27 0.2 mg/kg i.p. + MK801 0.2 mg/kg) was 5849.12 cm, the “Distance travelled (cm)” value ([5]; (−)-I-27 0.2 mg/kg i.p. + MK801 0.2 mg/kg, 5 minutes after MK801) was 527.23 ± 55.9 cm and the “Distance travelled (cm)” value ([5]; (−)-I-27 0.2 mg/kg i.p. + MK801 0.2 mg/kg, 10 minutes after MK801) was 353.73 ± 61.92 cm. The “Distance travelled (cm)” value ([5]; (−)-I-27 0.2 mg/kg i.p. + MK801 0.2 mg/kg, 15 minutes after MK801) was 415.6 ± 122.18 cm, the “Distance travelled (cm)” value ([5]; (−)-I-27 0.2 mg/kg i.p. + MK801 0.2 mg/kg, 20 minutes after MK801) was 555.77 ± 141.94 cm and the “Distance travelled (cm)” value ([5]; (−)-I-27 0.2 mg/kg i.p. + MK801 0.2 mg/kg, 25 minutes after MK801) was 775.2 ± 174.1 cm. For the same compound, the “Distance travelled (cm)” value ([5]; (−)-I-27 0.2 mg/kg i.p. + MK801 0.2 mg/kg, 30 minutes after MK801) was 815.56 ± 168.41 cm, the “Distance travelled (cm)” value ([5]; (−)-I-27 0.2 mg/kg i.p. + MK801 0.2 mg/kg, 35 minutes after MK801) was 844.11 ± 141.81 cm and the “Distance travelled (cm)” value ([5]; (−)-I-27 0.2 mg/kg i.p. + MK801 0.2 mg/kg, 40 minutes after MK801) was 771.62 ± 111.37| cm. The “Distance travelled (cm)” value ([5]; (−)-I-27 0.2 mg/kg i.p. + MK801 0.2 mg/kg, 45 minutes after MK801) was 790.3 ± 145.96 cm, the “Distance travelled (cm)” value ([5]; (−)-I-27 0.2 mg/kg i.p. + MK801 0.2 mg/kg, 50 minutes after MK801) was 741.75 ± 130.61 cm and the “Distance travelled (cm)” value ([5]; (−)-I-27 0.2 mg/kg i.p. + MK801 0.2 mg/kg, 55 minutes after MK801) was 547.84 ± 71.53 cm. For the same compound, the “Distance travelled (cm)” value ([5]; (−)-I-27 0.2 mg/kg i.p. + MK801 0.2 mg/kg, 60 minutes after MK801) was 707.09 ± 102.86 cm and the “Distance travelled (cm)” value ([5]; (−)-I-27 0.2 mg/kg i.p. + MK801 0.2 mg/kg, 65 minutes after MK801) was 653.46 ± 142.7 cm.
